Seven compounds from ChEMBL document CHEMBL3244182, “Potential bis-alkylating agents for cancer chemotherapy. Approaches to the synthesis of 2-sulfonyl-1,4-bis(methanesulfonoxy)butanes” (1978) can be followed below.

Converted amounts (≈) assume the structure as drawn. The source made the active and inactive calls. No cut-off for these calls is given here.

One assay has as its system KB. Briefly: In vitro antitumor activity against human KB cells treated as an alcoholic solution. Format: functional. Particulars: read-out: ED50 (the source's name).
Assay [1] deals with L1210. Briefly: In vivo antitumor activity against mouse L1210 cells allografted in BDF1 mouse at 400 mg/kg, ip administered as three doses as suspension in klucel. Format: functional, organism-based. The arrangement: dose 400 mg/kg.
In assay [2] the test system is P388. The assay is described as follows: In vivo antitumor activity against mouse P388 cells allografted in BDF1 mouse at 400 mg/kg, ip administered as three doses as suspension in klucel. The arrangement: dose 400 mg/kg. Format: functional, organism-based.
For assay [3], the system named is L1210. Briefly: In vivo antitumor activity against mouse L1210 cells allografted in BDF1 mouse at 400 mg/kg, ip administered as single dose as suspension in saline. It is filed as functional, organism-based. Also on record: dose 400 mg/kg.
The subject of assay [4] is L1210. Briefly: In vivo antitumor activity against mouse L1210 cells allografted in BDF1 mouse at 400 mg/kg, ip administered as nine doses as suspension in klucel. Format: functional, organism-based. Also on record: dose 400 mg/kg.
The test system of assay [5] is P388. Briefly: In vivo antitumor activity against mouse P388 cells allografted in CDF1 mouse at 200 mg/kg, ip administered as nine doses as suspension in klucel. It is filed as functional, organism-based. The arrangement: dose 200 mg/kg.
The test system of assay [6] is L1210. Briefly: In vivo antitumor activity against mouse L1210 cells allografted in BDF1 mouse at 200 mg/kg, ip administered as nine doses as suspension in saline with Tween 80. Format: functional, organism-based. The arrangement: dose 200 mg/kg.
The test system of assay [7] is L1210. The assay is described as follows: In vivo antitumor activity against mouse L1210 cells allografted in BDF1 mouse at 400 mg/kg, ip administered as single dose as suspension in CMC. The arrangement: dose 400 mg/kg. It is filed as functional, organism-based.

As for `CCCCCCCCCCCS(=O)(=O)C(CCOS(C)(=O)=O)COS(C)(=O)=O` (racemic), the EC50 with KB was 31 µg/mL (≈ 66.7 µM). Further, the result in the assay with L1210 [1] and in the assay with P388 [2] was inactive.
For `CCCCS(=O)(=O)C(CCOS(C)(=O)=O)COS(C)(=O)=O` (racemic), the outcome in the assay on L1210 [3] was inactive.
On to `COc1ccc(OCCS(=O)(=O)C(CCOS(C)(=O)=O)COS(C)(=O)=O)cc1` (racemic), for which, in the assay on L1210 [4], the result was inactive.
With `COc1ccccc1C(=O)Nc1cc2c(cc1N1CCNCC1C)n(C)c(=O)n2C` (racemic), the outcome in the assay on P388 [5] was inactive.
As to `CS(=O)(=O)OCCC(COS(C)(=O)=O)S(=O)(=O)CCCOc1ccccc1-c1ccccc1` (racemic), in the assay with L1210 [6], the result was inactive.
Consider `CS(=O)(=O)OCCC(COS(C)(=O)=O)S(=O)(=O)Cc1ccccc1` (racemic), for which the result in the assay with L1210 [3] was inactive.
Turning to `CS(=O)(=O)OCCC(COS(C)(=O)=O)S(=O)(=O)c1ccccc1` (racemic), the outcome in the assay with L1210 [7] was inactive.
